Measured values reported in ChEMBL document CHEMBL1201862, “PubChem BioAssay data set” (2004).
Calls of active or inactive are those of the source.

Experiments:
Fatty acid synthase [1] = target: T1, Fatty acid synthase (Homo sapiens, UniProt P49327); assay: inhibition of human FAS-TE enzyme activity – biochemical, endpoint fluorescence intensity, uHTS hits, dose response (AID 624327); assay type: functional;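 note: fluorescence from hydrolysis of an O-methyl fluorescein acyl ester substrate by the enzyme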
T1 sequence (P49327 whole entry): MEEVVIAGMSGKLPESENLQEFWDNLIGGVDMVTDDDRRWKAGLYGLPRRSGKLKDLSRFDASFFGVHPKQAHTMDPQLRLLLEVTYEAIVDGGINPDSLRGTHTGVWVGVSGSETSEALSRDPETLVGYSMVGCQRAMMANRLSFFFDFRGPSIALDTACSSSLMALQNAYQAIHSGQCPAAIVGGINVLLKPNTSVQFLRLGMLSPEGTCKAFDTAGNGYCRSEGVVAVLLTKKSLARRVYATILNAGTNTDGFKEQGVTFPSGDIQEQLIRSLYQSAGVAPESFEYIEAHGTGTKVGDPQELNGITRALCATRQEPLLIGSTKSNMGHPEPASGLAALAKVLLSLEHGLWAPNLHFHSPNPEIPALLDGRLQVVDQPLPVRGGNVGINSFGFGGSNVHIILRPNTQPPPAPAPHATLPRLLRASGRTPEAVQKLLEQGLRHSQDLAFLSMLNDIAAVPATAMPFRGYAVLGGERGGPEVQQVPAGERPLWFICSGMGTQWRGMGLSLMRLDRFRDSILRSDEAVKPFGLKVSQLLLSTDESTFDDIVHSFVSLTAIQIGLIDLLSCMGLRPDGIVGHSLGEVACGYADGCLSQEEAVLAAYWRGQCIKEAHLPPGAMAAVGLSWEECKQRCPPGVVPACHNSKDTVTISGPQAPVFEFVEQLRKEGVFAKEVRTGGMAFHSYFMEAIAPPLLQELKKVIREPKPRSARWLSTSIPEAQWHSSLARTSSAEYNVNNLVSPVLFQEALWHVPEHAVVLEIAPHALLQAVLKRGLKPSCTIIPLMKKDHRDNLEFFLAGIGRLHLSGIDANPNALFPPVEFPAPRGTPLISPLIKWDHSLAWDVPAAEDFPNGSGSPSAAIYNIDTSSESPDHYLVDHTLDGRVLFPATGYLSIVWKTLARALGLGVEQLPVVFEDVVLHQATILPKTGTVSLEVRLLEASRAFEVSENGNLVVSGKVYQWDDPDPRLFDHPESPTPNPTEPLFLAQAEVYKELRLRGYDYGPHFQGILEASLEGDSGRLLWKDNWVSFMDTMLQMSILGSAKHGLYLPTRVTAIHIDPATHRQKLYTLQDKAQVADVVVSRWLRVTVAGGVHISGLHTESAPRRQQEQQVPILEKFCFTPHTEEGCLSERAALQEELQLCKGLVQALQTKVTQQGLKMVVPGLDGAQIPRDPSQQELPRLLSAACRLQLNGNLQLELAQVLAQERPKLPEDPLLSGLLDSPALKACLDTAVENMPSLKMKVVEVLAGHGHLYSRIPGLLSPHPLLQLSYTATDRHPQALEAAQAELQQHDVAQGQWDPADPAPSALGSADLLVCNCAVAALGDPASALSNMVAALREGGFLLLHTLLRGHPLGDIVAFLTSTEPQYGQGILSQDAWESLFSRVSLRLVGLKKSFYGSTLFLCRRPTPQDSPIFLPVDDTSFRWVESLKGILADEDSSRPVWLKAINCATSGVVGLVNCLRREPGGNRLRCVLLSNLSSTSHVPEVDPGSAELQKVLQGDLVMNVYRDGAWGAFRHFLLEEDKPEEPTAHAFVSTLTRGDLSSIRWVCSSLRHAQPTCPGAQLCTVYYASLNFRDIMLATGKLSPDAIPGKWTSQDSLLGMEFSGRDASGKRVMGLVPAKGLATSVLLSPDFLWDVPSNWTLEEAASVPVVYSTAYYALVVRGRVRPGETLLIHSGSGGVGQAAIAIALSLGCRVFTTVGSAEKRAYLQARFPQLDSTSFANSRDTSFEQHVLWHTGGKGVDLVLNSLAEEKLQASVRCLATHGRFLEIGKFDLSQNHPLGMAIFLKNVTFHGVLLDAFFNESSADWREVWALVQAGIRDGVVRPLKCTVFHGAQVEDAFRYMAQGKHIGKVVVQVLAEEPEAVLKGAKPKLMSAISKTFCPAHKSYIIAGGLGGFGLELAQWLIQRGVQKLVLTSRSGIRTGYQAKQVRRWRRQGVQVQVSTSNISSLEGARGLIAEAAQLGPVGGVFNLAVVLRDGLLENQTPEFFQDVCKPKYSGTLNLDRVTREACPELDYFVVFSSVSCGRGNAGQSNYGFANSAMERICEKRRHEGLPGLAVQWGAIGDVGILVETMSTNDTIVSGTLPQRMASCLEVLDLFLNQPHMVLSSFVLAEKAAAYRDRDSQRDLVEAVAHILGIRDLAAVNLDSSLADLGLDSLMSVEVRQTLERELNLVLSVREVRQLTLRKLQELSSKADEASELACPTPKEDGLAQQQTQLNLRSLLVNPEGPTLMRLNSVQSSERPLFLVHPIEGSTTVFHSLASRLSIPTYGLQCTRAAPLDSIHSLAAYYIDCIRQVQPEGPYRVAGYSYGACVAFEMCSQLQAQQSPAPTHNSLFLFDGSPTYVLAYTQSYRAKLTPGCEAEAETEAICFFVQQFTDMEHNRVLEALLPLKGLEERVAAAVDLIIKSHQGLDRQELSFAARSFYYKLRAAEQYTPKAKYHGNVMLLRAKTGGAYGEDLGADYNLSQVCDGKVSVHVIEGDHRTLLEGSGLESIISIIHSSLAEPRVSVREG

Fatty acid synthase [2] = target: T1, Fatty acid synthase; assay: inhibition of human FAS-TE enzyme activity – biochemical, kinetic fluorescence intensity, dose response (AID 624326); assay type: functional;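 note: rate of fluorescence rise from hydrolysis of a fluorogenic O-methyl fluorescein ester substrate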
[3] = viability of uninfected HEp-2 cells – cell-based, HTS, cytotoxicity control for RSV inhibitor project, dose response (AID 2410); assay type: functional; conditions: human respiratory syncytial virus
[4] = microbe, parasite or virus in culture; assay type: functional; conditions: Mycobacterium tuberculosis
[5] = Luminescence Cell-Based Dose Retest to Confirm Inhibitors of Cancer Stem Cells. [Related pubchem assays (depositor defined):AID2717, AID2721]; assay type: functional; conditions: Homo sapiens
H9c2 = assay: cells; assay type: functional, cell-based; conditions: Rattus norvegicus, H9c2, Myocardium;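 note: confirmatory concentration-response retest of ultra-high-throughput screening hits for modulation of myocardial damage; cell death induced by hydrogen peroxide oxidative stress; compound pretreatment for 60 min then peroxide exposure for 2 h; potency is for protecting the cells against peroxide damage rather than for killing them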
[6] = target: Glyceraldehyde-3-phosphate dehydrogenase (Homo sapiens, UniProt P04406)
Chain of Glyceraldehyde-3-phosphate dehydrogenase (P04406 whole entry): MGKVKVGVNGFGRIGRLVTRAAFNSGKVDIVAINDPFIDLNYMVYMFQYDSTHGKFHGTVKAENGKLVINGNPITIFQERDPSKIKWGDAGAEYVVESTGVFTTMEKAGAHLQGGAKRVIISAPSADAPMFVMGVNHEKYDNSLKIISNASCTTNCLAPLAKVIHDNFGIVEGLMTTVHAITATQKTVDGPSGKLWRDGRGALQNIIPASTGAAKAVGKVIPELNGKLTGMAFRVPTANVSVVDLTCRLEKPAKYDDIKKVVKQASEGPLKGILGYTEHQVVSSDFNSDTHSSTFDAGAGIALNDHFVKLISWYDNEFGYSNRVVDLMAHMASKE

[7] = viability of PTEN-deleted HCT116 cells – cell-based, HCT116 PTEN knockout, dose response (AID 1047); assay type: functional;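 note: HCT116 colon tumor cells with PTEN knocked out; cells exposed to compound for 60 hours before readout; potency for loss of cell viability measured by luminescence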
[8] = viability of HCT116 lacking mutant beta-catenin – cell-based, human colon tumor, dose response (AID 1045); assay type: functional;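 note: HCT116 colon tumor cells with beta catenin knocked out; cells exposed to compound for 60 hours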
[9] = target: T2, High affinity choline transporter 1 (Homo sapiens, UniProt Q9GZV3); assay: human choline transporter blockers, potency – cell-based, 5-point CRC, membrane potential dye, dose response (AID 504840); assay type: functional
T2 sequence (Q9GZV3 whole entry): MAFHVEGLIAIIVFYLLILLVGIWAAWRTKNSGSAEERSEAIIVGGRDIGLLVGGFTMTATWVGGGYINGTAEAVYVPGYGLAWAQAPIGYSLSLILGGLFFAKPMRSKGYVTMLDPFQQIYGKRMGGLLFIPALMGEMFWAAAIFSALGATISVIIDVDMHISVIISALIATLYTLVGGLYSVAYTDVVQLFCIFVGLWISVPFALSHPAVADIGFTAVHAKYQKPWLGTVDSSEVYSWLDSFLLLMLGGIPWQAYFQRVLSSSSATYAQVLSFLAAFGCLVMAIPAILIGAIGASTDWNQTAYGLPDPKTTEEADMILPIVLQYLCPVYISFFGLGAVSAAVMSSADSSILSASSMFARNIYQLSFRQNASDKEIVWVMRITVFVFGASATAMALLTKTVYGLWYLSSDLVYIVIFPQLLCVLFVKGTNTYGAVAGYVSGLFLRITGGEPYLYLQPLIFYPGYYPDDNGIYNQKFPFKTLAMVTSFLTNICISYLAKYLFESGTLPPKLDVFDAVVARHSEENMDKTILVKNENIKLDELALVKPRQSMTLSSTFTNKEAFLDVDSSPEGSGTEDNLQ

[10] = Trypanosoma cruzi growth suppression in host cells – NIH3T3 host cells, beta-gal luminescence, confirmation (AID 2044); assay type: functional, cell-based;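 note: intracellular parasites grown in NIH/3T3 mouse fibroblasts as host cells; luminescent beta-galactosidase reporter signal from transgenic T. cruzi replicating inside host cells; inhibitors lower the luminescence signal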
[11] = NIH3T3 cell viability loss – ATP luminescence, mouse fibroblasts, counter-screen, dose response (AID 2010); assay type: functional, cell-based;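 note: cells exposed to compound for about 90 hours before reading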
[12] = reduction of Shn3 3'UTR-driven luciferase in osteoblasts – cell-based, Clone20 osteoblasts, firefly luciferase, cherry-picked, dose response (AID 624132); assay type: functional;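 note: firefly luciferase luminescence from reporter carrying the Shn3 3'UTR in osteoblasts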
[13] = loss of viability in HepG2 cells – cell-based, CellTiter-Glo, cherry-picked, cytotoxicity control for Shn3 inhibitor project, dose response (AID 624134); assay type: functional
[14] = target: FAD-linked sulfhydryl oxidase ALR (Homo sapiens, UniProt P55789); assay: ALR-catalysed DTT oxidation blockers – biochemical, H2O2 detection, luminescence, cherry-pick, dose response (AID 493248)
Chain of FAD-linked sulfhydryl oxidase ALR (P55789 whole entry): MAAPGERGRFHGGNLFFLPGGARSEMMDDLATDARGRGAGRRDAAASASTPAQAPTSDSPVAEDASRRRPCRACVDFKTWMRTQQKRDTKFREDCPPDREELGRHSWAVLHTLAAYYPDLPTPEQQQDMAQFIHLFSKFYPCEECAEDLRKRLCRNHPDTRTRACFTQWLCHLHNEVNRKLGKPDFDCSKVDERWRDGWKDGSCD

[15] = target: T3, Rac GTPase-activating protein 1 (Homo sapiens, UniProt Q9H0H5); assay: blockers of MgcRacGAP-driven Rac1 GTP hydrolysis – biochemical, ADP Hunter fluorescence, primary and confirmatory, confirmation (AID 624330); assay type: functional
T3 sequence (Q9H0H5 whole entry): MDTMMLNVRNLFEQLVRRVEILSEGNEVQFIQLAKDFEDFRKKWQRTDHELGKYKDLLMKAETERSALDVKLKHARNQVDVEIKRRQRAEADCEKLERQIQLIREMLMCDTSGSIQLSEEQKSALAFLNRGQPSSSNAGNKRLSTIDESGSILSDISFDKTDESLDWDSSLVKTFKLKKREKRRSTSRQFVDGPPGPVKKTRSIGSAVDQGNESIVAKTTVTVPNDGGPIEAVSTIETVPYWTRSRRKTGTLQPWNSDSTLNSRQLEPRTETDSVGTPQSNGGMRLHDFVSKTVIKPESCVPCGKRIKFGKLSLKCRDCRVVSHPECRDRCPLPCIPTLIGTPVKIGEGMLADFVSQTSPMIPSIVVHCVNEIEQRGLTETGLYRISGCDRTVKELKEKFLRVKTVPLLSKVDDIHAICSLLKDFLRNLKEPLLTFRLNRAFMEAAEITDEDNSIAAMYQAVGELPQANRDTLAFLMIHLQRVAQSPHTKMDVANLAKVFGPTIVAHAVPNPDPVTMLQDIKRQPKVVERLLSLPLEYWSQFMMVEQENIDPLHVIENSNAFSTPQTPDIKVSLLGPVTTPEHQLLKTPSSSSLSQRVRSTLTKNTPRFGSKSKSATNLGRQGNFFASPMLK

[16] = NIH-3T3 fibroblast cytotoxicity, dose response, cytotoxicity control, cell-based, fluorescence, Alamar Blue, secondary assay (AID 2327); assay type: functional;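 note: NIH-3T3 mouse fibroblasts cultured with fluconazole at 8 µg/mL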
[17] = fluconazole-exposed Candida albicans growth modulators – fluorescence, retest, confirmation (AID 2467); assay type: functional, cell-based
[18] = target: Induced myeloid leukemia cell differentiation protein Mcl-1 (Homo sapiens, UniProt Q07820); assay type: functional
Chain of Induced myeloid leukemia cell differentiation protein Mcl-1 (Q07820 whole entry): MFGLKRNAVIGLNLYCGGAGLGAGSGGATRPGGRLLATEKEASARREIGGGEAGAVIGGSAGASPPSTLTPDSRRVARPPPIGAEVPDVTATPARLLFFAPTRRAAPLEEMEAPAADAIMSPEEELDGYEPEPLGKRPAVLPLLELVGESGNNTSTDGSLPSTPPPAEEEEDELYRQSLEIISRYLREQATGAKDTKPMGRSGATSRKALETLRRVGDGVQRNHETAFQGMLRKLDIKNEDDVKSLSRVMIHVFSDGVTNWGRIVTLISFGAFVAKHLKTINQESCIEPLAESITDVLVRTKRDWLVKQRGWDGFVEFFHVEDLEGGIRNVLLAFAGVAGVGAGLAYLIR

For Cc1cc(NC(=O)COC(=O)c2cc([N+](=O)[O-])ccc2N2CCOCC2)ccc1Br, the IC50 (Fatty acid synthase [1]) was 2.82 µM (active) and the IC50 (Fatty acid synthase [2]) was 4.33 µM (active).

For Cn1nc(-c2ccccc2F)c2cc(C(=O)Nc3ccc4c(c3)OCCO4)sc21, the CC50 [3] was 26.9 µM (active), the CC50 [4] was > 40 µM (active) and the AC50 [5] was 3.48 µM (active). The IC50 (H9c2) was > 79 µM (inactive).

For Cc1cc(NS(=O)(=O)c2ccc(NC(=O)C(F)(F)F)cc2)no1, the IC50 [6] was > 100 µM (not active).

With CCCn1c(CN2CCN(c3cccc(Cl)c3)CC2)nc2c1c(=O)n(C)c(=O)n2C the EC50 [7] was 39.9 µM (active), the EC50 [8] was 33.1 µM (active) and the IC50 [9] was 14.2 µM (active).

In the case of Fc1cccc(Cc2noc(CN3CCC(c4ccncc4)CC3)n2)c1, the EC50 [10] is reported as 2.11 µM (active), the EC50 [11] is reported as > 60 µM (not active) and the IC50 [9] is reported as 14.5 µM (active).

With O=[N+]([O-])c1cccc(S(=O)(=O)NCc2ccncc2)c1 the AC50 [12] was 3.09 µM (active) and the AC50 [13] was 48.4 µM (active).

With O=C(NN1C(=O)C2C(c3ccccc3)C=CC(c3ccccc3)C2C1=O)c1cccc(Br)c1 (configuration not stated) the IC50 (Fatty acid synthase [1]) was 12.1 µM (active) and the IC50 (Fatty acid synthase [2]) was 9.22 µM (active).

For O=C(c1ccc(Cl)c(S(=O)(=O)N2CCCC2)c1)N1CCN(c2ccccc2)CC1, the IC50 [9] was 6.61 µM (active).

For COc1cccc(N2C(=O)C(Cl)=C(N3CCN(CCO)CC3)C2=O)c1, the IC50 [6] was > 50 µM (inconclusive).

For CC(C)(C)C(=O)/C(=C\c1cccc([N+](=O)[O-])c1)n1cncn1, the CC50 [4] was 4.33 µM (active).

With CCOC(=O)c1cnc2c(C)cc(Cl)cc2c1N1CCN(C)CC1 the IC50 [9] was 11.5 µM (active).

In the case of CCOc1nc(SCCOc2ccc(C)cc2)nc(N(C)C)n1, the EC50 [7] is reported as 45 µM (active) and the EC50 [8] is reported as 56.2 µM (active).

In the case of O=C(Nc1ccc(Nc2ccccc2)cc1)C1CC1, the AC50 [14] is reported as 0.875 µM (active) and the IC50 [15] is reported as 50.8 µM (active).

In the case of CN(C)C1=C(Cl)C(=O)N(c2ccnc(Cl)c2)C1=O, the IC50 [6] is reported as > 50 µM (inconclusive).

In the case of CC(C)n1c(O)c(N=NC(=O)Cc2csc(N3CCOCC3)n2)c2ccccc21, the IC50 [9] is reported as 13.5 µM (active).

In the case of Cc1cc(C)cc(NC(=O)c2ccc(Cn3nc(C)c(Cl)c3C)o2)c1, the CC50 [3] is reported as 23.5 µM (active) and the CC50 [4] is reported as > 40 µM (active).

With Cc1nn(-c2ccccc2)c(N)c1N=Nc1ccc(Cl)cc1 the EC50 [16] was 22.8 µM (inconclusive), the EC50 [17] was 5.82 µM (active) and the CC50 [4] was > 40 µM (active).

For COc1ccc(NC(=O)c2ccccc2N(Cc2ccccc2)S(C)(=O)=O)cc1, the IC50 [18] was 40.6 µM (not active).

With Cc1nc2ccccc2c2nc3ccccc3n12 the CC50 [4] was > 40 µM (active).

With Cc1ccc(N2C(=O)C(Cl)=C(N3CCOCC3)C2=O)cc1 the IC50 [6] was > 50 µM (inconclusive).

For COC(=O)c1ccc(C2c3c(oc4ccc(Cl)cc4c3=O)C(=O)N2CCN2CCOCC2)cc1 (configuration not stated), the IC50 (Fatty acid synthase [1]) was 14.6 µM (active) and the IC50 (Fatty acid synthase [2]) was 11.6 µM (active).
